According to patent US6355799B1, “Substituted benzene compounds, process for their preparation, and herbicidal and defoliant compositions containing them” (ISK Americas Incorporated, priority 1997, dated 2002):

Key:
Assay type in all cases: in vivo
[1] = test system: redroot pigweed (Amaranthus retroflexus, AMARE); experiment: Pre-emerge test, greenhouse herbicide activity screening; settings: pre-emerge, 14 days after application, scale 0-100
Outline: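 Sandy loam pots; pre-emerge: sown 1 d pre-spray, surface-watered after, then bottom-watered. Post-emerge: sown 8–21 d before, 2–3 leaf stage, + 0.25% v/v NIS, bottom-watered. Acetone, 187 l/ha track spray, 15–1000 g ai/ha. 0–100 injury score, day 14.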

[2] = test system: barnyardgrass (Echinochloa crus-galli, ECHCG); experiment: as above; settings: pre-emerge, 14 days after application, scale 0-100
Excerpt: (§1) A standard greenhouse herbicide activity screening system was used to evaluate the herbicidal efficacy and crop safety of these test compounds. Seven broadleaf weed species including redroot pigweed (Amaranthus retroflexus, AMARE, velvetleaf (Abutilon theophrasti, ABUTH), sicklepod (Cassia obtusifolia, CASOB), ivyleaf morningglory (Ipomoea hederacea, IPOHE), lambsquarters (Chenopodium album, CHEAL), common ragweed (Ambrosia artemisizfolia L., AMBEL), and cocklebur (Xanthium strumarium, XANST) were used as test species. Four grass weed species including green foxtail (Setaria viridis, SETVI), barnyardgrass (Echinochloa crus-galli, ECHCG), johnsongrass (Sorghum halepense, SORHA), and large crabgrass (Digitaria sanguinalis, DIGSA) were also used. In addition, three crop species, field corn (Zea mays L., var. Dekalb 535, CORN), soybean (Glycine max L., var. Pella 86, SOY), and is upland rice (Oryza sp., var. Tebonnet, RICE) were included.
(§2) All plants were grown in 10 cm square plastic pots which were filled with a sandy loam soil mix. For pre-emerge tests, seeds were planted one day prior to application of the test compounds. For post-emerge tests, seeds were planted 8-21 days prior to the test to allow emergence and good foliage development prior to application of the test substances. At the time of the post-emerge application, plants of all species were usually at the 2-3 leaf stage of development.
(§3) All test compounds Were dissolved in acetone and applied to the test units in a volume of 187 l /ha. Test materials were applied at rates ranging from 15 g ai/ha to 1000 g ai/ha using a track sprayer equipped with a TJ8001E even flow flat fan spray nozzle. Plants were arranged on a shelf so that the top of the canopy (post-emerge) or top of the soil surface (pre-emerge) was 40-45 cm below the nozzle. Pressurized air was used to force the test solution through the nozzle as it was mechanically advanced (via electrically driven chain drive) over the top of all test plants/pots. This application simulates a typical commercial field herbicide application.
(§4) In the post-emerge test, a commercial non-ionic surfactant was also included (0.25% v/v) to enhance wetting of the leaf surfaces of target plants. Immediately after application, test units of the pre-emerge applications were watered at the soil surface to incorporate the test materials. Subsequently, these test units were bottom-watered. Post-emerge test units were always bottom-watered.
(§5) At 14 days after application of the test materials, phytotoxicity ratings were recorded. A rating scale of 0-100 was used as previously described in Research Methods in Weed Science, 2nd edition, B. Truelove, Ed., Southern Weed Science Society, Auburn University, Auburn, Ala. 1977. Briefly, “0” corresponds to no damage and “100” corresponds to complete death of all plants in the test unit. This scale was used both to determine efficacy against weed species and damage to crop species. Herbicide activity data for various compounds of this invention, which are shown by compound No. in Tables 1-8, are shown in Tables 11 and 12.

[3] = test system: green foxtail (Setaria viridis, SETVI); experiment: as above; settings: pre-emerge, 14 days after application, scale 0-100
Excerpt: as §1, §2, §3, §4, §5

[4] = test system: ivyleaf morningglory (Ipomoea hederacea, IPOHE); experiment: as above; settings: pre-emerge, 14 days after application, scale 0-100
Excerpt: as §1, §2, §3, §4, §5

[5] = test system: lambsquarters (Chenopodium album, CHEAL); experiment: as above; settings: pre-emerge, 14 days after application, scale 0-100
Excerpt: as §1, §2, §3, §4, §5

[6] = test system: large crabgrass (Digitaria sanguinalis, DIGSA); experiment: as above; settings: pre-emerge, 14 days after application, scale 0-100
Excerpt: as §1, §2, §3, §4, §5

[7] = test system: sicklepod (Cassia obtusifolia, CASOB); experiment: as above; settings: pre-emerge, 14 days after application, scale 0-100
Excerpt: as §1, §2, §3, §4, §5

[8] = test system: velvetleaf (Abutilon theophrasti, ABUTH); experiment: as above; settings: pre-emerge, 14 days after application, scale 0-100
Excerpt: as §1, §2, §3, §4, §5

[9] = test system: field corn (Zea mays L., var. Dekalb 535, CORN); experiment: Pre-emerge test, crop safety; settings: pre-emerge, 14 days after application, scale 0-100
Excerpt: as §1, §2, §3, §4, §5

[10] = test system: upland rice (Oryza sp., var. Tebonnet, RICE); experiment: Pre-emerge test, crop safety; settings: pre-emerge, 14 days after application, scale 0-100
Excerpt: as §1, §2, §3, §4, §5

[11] = test system: barnyardgrass (Echinochloa crus-galli, ECHCG); experiment: Post-emerge test, greenhouse herbicide activity screening; settings: post-emerge, 14 days after application, rating scale 0-100
Excerpt: as §1, §2, §3, §4, §5

[12] = test system: green foxtail (Setaria viridis, SETVI); experiment: as above; settings: post-emerge, 14 days after application, rating scale 0-100
Excerpt: as §1, §2, §3, §4, §5

[13] = test system: ivyleaf morningglory (Ipomoea hederacea, IPOHE); experiment: as above; settings: post-emerge, 14 days after application, rating scale 0-100
Excerpt: as §1, §2, §3, §4, §5

[14] = test system: lambsquarters (Chenopodium album, CHEAL); experiment: as above; settings: post-emerge, 14 days after application, rating scale 0-100
Excerpt: as §1, §2, §3, §4, §5

[15] = test system: large crabgrass (Digitaria sanguinalis, DIGSA); experiment: as above; settings: post-emerge, 14 days after application, rating scale 0-100
Excerpt: as §1, §2, §3, §4, §5

[16] = test system: redroot pigweed (Amaranthus retroflexus, AMARE); experiment: as above; settings: post-emerge, 14 days after application, rating scale 0-100
Excerpt: as §1, §2, §3, §4, §5

[17] = test system: sicklepod (Cassia obtusifolia, CASOB); experiment: as above; settings: post-emerge, 14 days after application, rating scale 0-100
Excerpt: as §1, §2, §3, §4, §5

[18] = test system: velvetleaf (Abutilon theophrasti, ABUTH); experiment: as above; settings: post-emerge, 14 days after application, rating scale 0-100
Excerpt: as §1, §2, §3, §4, §5

[19] = test system: field corn (Zea mays L., var. Dekalb 535, CORN); experiment: Post-emerge test, crop safety; settings: post-emerge, 14 days after application, rating scale 0-100
Excerpt: as §1, §2, §3, §4, §5

[20] = test system: upland rice (Oryza sp., var. Tebonnet, RICE); experiment: Post-emerge test, crop safety; settings: post-emerge, 14 days after application, rating scale 0-100
Excerpt: as §1, §2, §3, §4, §5

SMILES | phytotoxicity rating AMARE ([1]; 63 g ai/ha) | phytotoxicity rating AMARE ([1]; 250 g ai/ha) | phytotoxicity rating ECHCG ([2]; 63 g ai/ha) | phytotoxicity rating ECHCG ([2]; 250 g ai/ha) | phytotoxicity rating SETVI ([3]; 63 g ai/ha) | phytotoxicity rating SETVI ([3]; 250 g ai/ha) | phytotoxicity rating IPOHE ([4]; 63 g ai/ha) | phytotoxicity rating IPOHE ([4]; 250 g ai/ha) | phytotoxicity rating CHEAL ([5]; 63 g ai/ha) | phytotoxicity rating CHEAL ([5]; 250 g ai/ha) | phytotoxicity rating DIGSA ([6]; 63 g ai/ha) | phytotoxicity rating DIGSA ([6]; 250 g ai/ha) | phytotoxicity rating CASOB ([7]; 63 g ai/ha) | phytotoxicity rating CASOB ([7]; 250 g ai/ha) | phytotoxicity rating ABUTH ([8]; 63 g ai/ha) | phytotoxicity rating ABUTH ([8]; 250 g ai/ha) | phytotoxicity rating CORN (crop damage) ([9]; 63 g ai/ha) | phytotoxicity rating CORN (crop damage) ([9]; 250 g ai/ha) | phytotoxicity rating RICE (crop damage) ([10]; 63 g ai/ha) | phytotoxicity rating RICE (crop damage) ([10]; 250 g ai/ha) | further results
COc1c(Cl)cc(F)c(-n2c(=O)cc(C(F)(F)F)n(C)c2=O)c1NC(=O)CCc1cc(C)ccc1C [2-130] | 40 | 100 | 0 | 30 | 50 | 100 | 0 | 30 | 60 | 100 | 20 | 90 | 0 | 40 | 100 | 100 | 0 | 5 | 0 | 15 | ECHCG phytotoxicity rating ([11]; 63 g ai/ha): 50; ECHCG phytotoxicity rating ([11]; 250 g ai/ha): 60; SETVI phytotoxicity rating ([12]; 63 g ai/ha): 60; SETVI phytotoxicity rating ([12]; 250 g ai/ha): 70; IPOHE phytotoxicity rating ([13]; 63 g ai/ha): 100; IPOHE phytotoxicity rating ([13]; 250 g ai/ha): 100; CHEAL phytotoxicity rating ([14]; 63 g ai/ha): 100; CHEAL phytotoxicity rating ([14]; 250 g ai/ha): 100; DIGSA phytotoxicity rating ([15]; 63 g ai/ha): 30; DIGSA phytotoxicity rating ([15]; 250 g ai/ha): 50; AMARE phytotoxicity rating ([16]; 63 g ai/ha): 100; AMARE phytotoxicity rating ([16]; 250 g ai/ha): 100; CASOB phytotoxicity rating ([17]; 63 g ai/ha): 80; CASOB phytotoxicity rating ([17]; 250 g ai/ha): 70; ABUTH phytotoxicity rating ([18]; 63 g ai/ha): 100; ABUTH phytotoxicity rating ([18]; 250 g ai/ha): 100; CORN phytotoxicity rating (crop damage) ([19]; 63 g ai/ha): 10; CORN phytotoxicity rating (crop damage) ([19]; 250 g ai/ha): 30; RICE phytotoxicity rating (crop damage) ([20]; 63 g ai/ha): 20; RICE phytotoxicity rating (crop damage) ([20]; 250 g ai/ha): 25
COc1c(Cl)cc(F)c(-n2c(=O)cc(C(F)(F)F)n(C)c2=O)c1NC(=O)COc1ccc(Cl)cc1 [2-135] | 95 | 100 | 10 | 30 | 80 | 100 | 20 | 100 | 100 | 100 | 60 | 95 | 10 | 60 | 90 | 100 | 0 | 0 | 0 | 35 | ECHCG phytotoxicity rating ([11]; 63 g ai/ha): 0; ECHCG phytotoxicity rating ([11]; 250 g ai/ha): 20; SETVI phytotoxicity rating ([12]; 63 g ai/ha): 15; SETVI phytotoxicity rating ([12]; 250 g ai/ha): 40; IPOHE phytotoxicity rating ([13]; 63 g ai/ha): 100; IPOHE phytotoxicity rating ([13]; 250 g ai/ha): 95; CHEAL phytotoxicity rating ([14]; 63 g ai/ha): 100; CHEAL phytotoxicity rating ([14]; 250 g ai/ha): 100; DIGSA phytotoxicity rating ([15]; 63 g ai/ha): 0; DIGSA phytotoxicity rating ([15]; 250 g ai/ha): 10; AMARE phytotoxicity rating ([16]; 63 g ai/ha): 100; AMARE phytotoxicity rating ([16]; 250 g ai/ha): 100; CASOB phytotoxicity rating ([17]; 63 g ai/ha): 70; CASOB phytotoxicity rating ([17]; 250 g ai/ha): 100; ABUTH phytotoxicity rating ([18]; 63 g ai/ha): 100; ABUTH phytotoxicity rating ([18]; 250 g ai/ha): 100; CORN phytotoxicity rating (crop damage) ([19]; 63 g ai/ha): 10; CORN phytotoxicity rating (crop damage) ([19]; 250 g ai/ha): 25; RICE phytotoxicity rating (crop damage) ([20]; 63 g ai/ha): 20; RICE phytotoxicity rating (crop damage) ([20]; 250 g ai/ha): 40
COc1c(Cl)cc(F)c(-n2c(=O)cc(C(F)(F)F)n(C)c2=O)c1NC(=O)C(C#N)=Cc1ccccc1 [2-136] | 40 | 90 | 0 | 0 | 10 | 40 | 0 | 100 | 90 | 100 | 0 | 10 | 0 | 40 | 80 | 100 | 0 | 0 | 0 | 10 | ECHCG phytotoxicity rating ([11]; 63 g ai/ha): 0; ECHCG phytotoxicity rating ([11]; 250 g ai/ha): 10; SETVI phytotoxicity rating ([12]; 63 g ai/ha): 20; SETVI phytotoxicity rating ([12]; 250 g ai/ha): 30; IPOHE phytotoxicity rating ([13]; 63 g ai/ha): 80; IPOHE phytotoxicity rating ([13]; 250 g ai/ha): 100; CHEAL phytotoxicity rating ([14]; 63 g ai/ha): 95; CHEAL phytotoxicity rating ([14]; 250 g ai/ha): 100; DIGSA phytotoxicity rating ([15]; 63 g ai/ha): 0; DIGSA phytotoxicity rating ([15]; 250 g ai/ha): 20; AMARE phytotoxicity rating ([16]; 63 g ai/ha): 100; AMARE phytotoxicity rating ([16]; 250 g ai/ha): 100; CASOB phytotoxicity rating ([17]; 63 g ai/ha): 60; CASOB phytotoxicity rating ([17]; 250 g ai/ha): 100; ABUTH phytotoxicity rating ([18]; 63 g ai/ha): 100; ABUTH phytotoxicity rating ([18]; 250 g ai/ha): 100; CORN phytotoxicity rating (crop damage) ([19]; 63 g ai/ha): 15; CORN phytotoxicity rating (crop damage) ([19]; 250 g ai/ha): 10; RICE phytotoxicity rating (crop damage) ([20]; 63 g ai/ha): 5; RICE phytotoxicity rating (crop damage) ([20]; 250 g ai/ha): 10
